# Measurements as given in ChEMBL document CHEMBL5380857, “Discovery of Potent, Selective, and Orally Bioavailable Small-Molecule Inhibitors of CDK8 for the Treatment of Cancer” (J Med Chem, 2023).
# Calls of active or inactive are those of the source. The rule behind the calls is not given here.
# Columns and labels:
# [1] = tested on: Mus musculus; assay: In vivo inhibition of STAT1 phosphorylation at S727 residue in BALB/c nude mouse xenografted with human MV4-11 cells assessed as reduction in p-STAT1 protein level administered orally by gavage twice per day for 17 days and measured 24 hrs post last dose by Western blot analysis; assay type: functional, organism-based; conditions: dose 1-10 mg/kg, route po, time 17.0 day
# [2] = Clearance in Sprague-Dawley rat assessed as liver blood flow at 5 mg/kg, po or 1 mg/kg, iv administered as single dose and measured for 24 hrs by LC-MS/MS analysis; assay type: ADME, organism-based; conditions: in vivo
# [3] = tested on: MV4-11; assay: Induction of cell cycle arrest in human MV4-11 cells assessed as reduction in accumulation of cells at G2/M phase at 0.01 to 1 uM incubated for 48 hrs; assay type: functional, cell-based; conditions: dose 0.01-1 µM
# [4] = molecular target: Phosphatidylinositol 3-kinase catalytic subunit type 3 (Homo sapiens, UniProt Q8NEB9); assay: Binding affinity to VPS34 (unknown origin) assessed as dissociation constant by competitive binding assay
# Sequence of Phosphatidylinositol 3-kinase catalytic subunit type 3 (Q8NEB9 whole entry): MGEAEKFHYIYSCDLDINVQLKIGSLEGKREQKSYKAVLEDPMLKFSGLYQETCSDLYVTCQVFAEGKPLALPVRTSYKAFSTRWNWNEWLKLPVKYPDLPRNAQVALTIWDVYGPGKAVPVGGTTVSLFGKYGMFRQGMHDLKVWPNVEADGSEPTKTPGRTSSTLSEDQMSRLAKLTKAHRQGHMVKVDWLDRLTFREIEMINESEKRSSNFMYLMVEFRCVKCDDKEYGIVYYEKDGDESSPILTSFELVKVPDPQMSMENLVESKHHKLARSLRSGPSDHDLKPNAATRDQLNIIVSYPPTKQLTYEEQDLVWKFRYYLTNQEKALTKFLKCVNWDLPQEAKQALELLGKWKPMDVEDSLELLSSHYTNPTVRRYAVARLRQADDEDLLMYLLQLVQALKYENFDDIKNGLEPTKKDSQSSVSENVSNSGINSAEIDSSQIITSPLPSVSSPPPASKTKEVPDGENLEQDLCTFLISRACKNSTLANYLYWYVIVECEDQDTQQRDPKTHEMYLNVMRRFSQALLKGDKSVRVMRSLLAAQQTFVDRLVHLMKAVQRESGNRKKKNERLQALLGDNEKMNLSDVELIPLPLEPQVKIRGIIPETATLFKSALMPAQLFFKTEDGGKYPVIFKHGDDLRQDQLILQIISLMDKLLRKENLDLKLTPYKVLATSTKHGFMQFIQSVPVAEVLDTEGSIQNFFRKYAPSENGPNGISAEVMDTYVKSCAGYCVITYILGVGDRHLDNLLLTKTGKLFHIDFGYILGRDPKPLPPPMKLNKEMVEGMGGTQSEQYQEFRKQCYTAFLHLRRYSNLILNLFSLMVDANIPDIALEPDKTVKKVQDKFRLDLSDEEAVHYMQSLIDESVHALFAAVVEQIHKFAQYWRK
# [5] = molecular target: T1, Signal transducer and activator of transcription 1-alpha/beta (Homo sapiens) (UniProt P42224); assay: Inhibition of STAT1 phosphorylation at S727 residue in human MV4-11 cells incubated for 24 hrs by Western blot analysis; assay type: cell-based; conditions: dose 0.001-1 µM
# T1 sequence (whole entry): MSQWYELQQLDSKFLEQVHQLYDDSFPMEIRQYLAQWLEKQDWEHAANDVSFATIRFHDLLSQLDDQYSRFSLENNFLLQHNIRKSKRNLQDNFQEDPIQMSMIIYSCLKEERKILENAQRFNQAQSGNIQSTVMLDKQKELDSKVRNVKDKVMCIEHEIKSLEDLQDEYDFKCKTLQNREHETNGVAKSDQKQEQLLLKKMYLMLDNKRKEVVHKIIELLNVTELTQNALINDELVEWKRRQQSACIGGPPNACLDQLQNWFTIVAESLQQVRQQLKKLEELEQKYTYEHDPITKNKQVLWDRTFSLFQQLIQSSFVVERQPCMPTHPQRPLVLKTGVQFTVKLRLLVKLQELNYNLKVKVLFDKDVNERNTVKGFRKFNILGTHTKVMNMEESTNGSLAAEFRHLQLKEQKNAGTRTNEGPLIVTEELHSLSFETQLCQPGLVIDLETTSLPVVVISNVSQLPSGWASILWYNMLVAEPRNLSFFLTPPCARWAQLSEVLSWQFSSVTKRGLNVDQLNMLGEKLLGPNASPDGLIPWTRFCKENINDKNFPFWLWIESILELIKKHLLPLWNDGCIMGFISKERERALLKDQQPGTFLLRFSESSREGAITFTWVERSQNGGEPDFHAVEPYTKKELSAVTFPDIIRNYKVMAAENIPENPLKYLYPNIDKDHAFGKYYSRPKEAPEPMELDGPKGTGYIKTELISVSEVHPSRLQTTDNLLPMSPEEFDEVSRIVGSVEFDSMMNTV
# [6] = molecular target: Voltage-gated inwardly rectifying potassium channel KCNH2 (Homo sapiens, UniProt Q12809); assay: Inhibition of hERG expressed in CHO cells at -80 mV holding potential by whole cell patch clamp recording assay; assay type: toxicity, cell-based
# Sequence of Voltage-gated inwardly rectifying potassium channel KCNH2 (Q12809 whole entry): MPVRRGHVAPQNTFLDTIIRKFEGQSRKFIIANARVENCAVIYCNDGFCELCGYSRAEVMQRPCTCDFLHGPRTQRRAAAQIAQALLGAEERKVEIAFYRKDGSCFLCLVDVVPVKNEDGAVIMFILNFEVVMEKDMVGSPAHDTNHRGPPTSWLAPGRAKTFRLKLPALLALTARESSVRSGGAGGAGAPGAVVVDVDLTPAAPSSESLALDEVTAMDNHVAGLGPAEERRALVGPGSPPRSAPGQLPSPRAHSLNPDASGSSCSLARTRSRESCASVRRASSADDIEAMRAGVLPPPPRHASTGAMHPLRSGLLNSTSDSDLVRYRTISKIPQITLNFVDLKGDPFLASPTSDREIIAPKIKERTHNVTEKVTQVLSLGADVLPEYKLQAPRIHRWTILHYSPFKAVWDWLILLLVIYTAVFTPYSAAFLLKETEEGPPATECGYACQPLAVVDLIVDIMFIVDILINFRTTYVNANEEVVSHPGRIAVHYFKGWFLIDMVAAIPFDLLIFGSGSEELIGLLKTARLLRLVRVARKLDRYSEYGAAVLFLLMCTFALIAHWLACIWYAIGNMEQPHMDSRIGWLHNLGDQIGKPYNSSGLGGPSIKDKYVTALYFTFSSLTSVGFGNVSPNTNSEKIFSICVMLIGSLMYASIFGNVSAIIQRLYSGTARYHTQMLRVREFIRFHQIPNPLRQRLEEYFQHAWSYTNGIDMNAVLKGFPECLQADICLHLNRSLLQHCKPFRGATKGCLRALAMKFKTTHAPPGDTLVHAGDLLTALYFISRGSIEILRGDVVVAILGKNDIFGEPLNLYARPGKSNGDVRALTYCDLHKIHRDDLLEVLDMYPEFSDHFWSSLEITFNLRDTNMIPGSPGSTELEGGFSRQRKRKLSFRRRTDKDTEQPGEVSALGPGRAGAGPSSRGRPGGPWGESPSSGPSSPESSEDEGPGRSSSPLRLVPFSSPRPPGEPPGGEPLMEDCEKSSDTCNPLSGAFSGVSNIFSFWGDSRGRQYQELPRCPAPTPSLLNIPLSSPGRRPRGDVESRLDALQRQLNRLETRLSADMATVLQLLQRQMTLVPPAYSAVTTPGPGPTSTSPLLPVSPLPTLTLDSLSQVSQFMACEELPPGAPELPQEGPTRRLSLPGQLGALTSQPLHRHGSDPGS
# [7] = Volume of distribution in Beagle dog at 1 mg/kg, po or 0.5 mg/kg, iv administered as single dose and measured for 24 hrs by LC-MS/MS analysis; assay type: ADME, organism-based, Canis lupus familiaris; conditions: in vivo
# [8] = molecular target: CDK8/Cyclin C (Homo sapiens, UniProt P49336); assay: Inhibition of His tagged human recombinant CDK8/Cyclin C expressed in baculovirus expression system incubated for 15 mins by FRET-based LanthaScreen binding competition assay
# Sequence of CDK8/Cyclin C (P49336 whole entry): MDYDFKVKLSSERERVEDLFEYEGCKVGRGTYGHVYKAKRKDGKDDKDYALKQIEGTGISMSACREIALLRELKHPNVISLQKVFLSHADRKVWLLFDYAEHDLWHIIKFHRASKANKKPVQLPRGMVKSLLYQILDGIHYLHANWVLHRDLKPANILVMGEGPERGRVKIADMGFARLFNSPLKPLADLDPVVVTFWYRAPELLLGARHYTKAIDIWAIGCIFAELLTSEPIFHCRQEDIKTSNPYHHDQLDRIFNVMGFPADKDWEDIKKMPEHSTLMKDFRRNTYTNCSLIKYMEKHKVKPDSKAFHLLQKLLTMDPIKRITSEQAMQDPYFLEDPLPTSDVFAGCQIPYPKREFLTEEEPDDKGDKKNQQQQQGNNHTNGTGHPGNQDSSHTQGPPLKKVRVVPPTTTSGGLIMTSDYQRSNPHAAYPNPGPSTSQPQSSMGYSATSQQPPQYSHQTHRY
# Sequence of CDK8/Cyclin C (P24863 whole entry, further chain): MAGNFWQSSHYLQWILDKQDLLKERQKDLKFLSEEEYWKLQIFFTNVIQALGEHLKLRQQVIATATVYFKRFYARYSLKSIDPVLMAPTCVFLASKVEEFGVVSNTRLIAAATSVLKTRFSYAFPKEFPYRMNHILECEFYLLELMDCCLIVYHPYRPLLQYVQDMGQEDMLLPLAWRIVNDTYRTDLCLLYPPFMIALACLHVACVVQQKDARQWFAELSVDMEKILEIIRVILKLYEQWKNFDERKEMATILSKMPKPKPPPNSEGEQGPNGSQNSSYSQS
# [9] = tested on: MV4-11; assay: Induction of cell cycle arrest in human MV4-11 cells assessed as reduction in accumulation of cells at S phase at 0.01 to 1 uM incubated for 48 hrs; assay type: functional, cell-based; conditions: dose 0.01-1 µM
# [10] = Antitumor activity against mouse LL2 cells implanted in C57BL/6J syngeneic mouse model assessed as tumor growth inhibition at 1 mg/kg, po administered via gavage twice daily for 14 days in presence of mPDL1 antibody administered twice per week and measured 3 times a week by caliper method relative to control; assay type: functional; conditions: Lewis lung carcinoma, 336 h, time 14 day, read-out: TGI
# [11] = molecular target: T2, Serine/threonine-protein kinase LATS2 (Homo sapiens, UniProt Q9NRM7); assay: Binding affinity to LATS2 (unknown origin) assessed as dissociation constant by competitive binding assay
# T2 sequence (Q9NRM7 whole entry): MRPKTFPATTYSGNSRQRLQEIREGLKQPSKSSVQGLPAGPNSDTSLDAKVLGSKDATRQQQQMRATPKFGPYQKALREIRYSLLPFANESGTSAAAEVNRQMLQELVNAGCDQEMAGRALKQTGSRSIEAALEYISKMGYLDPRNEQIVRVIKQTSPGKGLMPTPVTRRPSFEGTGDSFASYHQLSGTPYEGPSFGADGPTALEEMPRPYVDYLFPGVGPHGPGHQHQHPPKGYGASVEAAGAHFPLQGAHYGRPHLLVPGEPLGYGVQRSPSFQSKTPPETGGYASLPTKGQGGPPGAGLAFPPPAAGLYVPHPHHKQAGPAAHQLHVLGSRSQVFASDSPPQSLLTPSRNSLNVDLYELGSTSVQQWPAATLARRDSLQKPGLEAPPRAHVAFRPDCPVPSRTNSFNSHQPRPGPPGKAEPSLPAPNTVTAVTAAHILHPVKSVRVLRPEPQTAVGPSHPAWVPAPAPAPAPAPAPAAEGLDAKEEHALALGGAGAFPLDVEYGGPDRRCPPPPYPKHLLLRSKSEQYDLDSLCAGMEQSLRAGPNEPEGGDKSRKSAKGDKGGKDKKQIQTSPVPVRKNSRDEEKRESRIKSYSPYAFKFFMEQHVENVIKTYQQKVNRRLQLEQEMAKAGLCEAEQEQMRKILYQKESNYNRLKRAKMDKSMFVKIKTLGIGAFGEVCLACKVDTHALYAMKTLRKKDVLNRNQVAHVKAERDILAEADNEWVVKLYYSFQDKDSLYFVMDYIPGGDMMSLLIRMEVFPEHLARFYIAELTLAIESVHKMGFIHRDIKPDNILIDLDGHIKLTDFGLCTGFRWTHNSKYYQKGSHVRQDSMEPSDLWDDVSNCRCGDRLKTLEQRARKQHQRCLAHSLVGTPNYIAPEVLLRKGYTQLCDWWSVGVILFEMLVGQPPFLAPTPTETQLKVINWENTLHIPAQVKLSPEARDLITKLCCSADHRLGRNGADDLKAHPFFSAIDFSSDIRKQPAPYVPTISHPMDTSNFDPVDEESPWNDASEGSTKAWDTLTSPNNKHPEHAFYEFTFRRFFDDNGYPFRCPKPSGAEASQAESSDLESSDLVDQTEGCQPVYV
# [12] = Bioavailability in Beagle dog at 1 mg/kg, po or 0.5 mg/kg, iv administered as single dose and measured for 24 hrs by LC-MS/MS analysis; assay type: ADME, organism-based, Canis lupus familiaris; conditions: in vivo
# [13] = Cytotoxicity against HEK293 cells; assay type: toxicity, cell-based; conditions: human
# [14] = Half life in CD-1 mouse at 5 mg/kg, po or 1 mg/kg, iv administered as single dose and measured for 24 hrs by LC-MS/MS analysis; assay type: ADME, organism-based; conditions: in vivo
# [15] = Clearance in Beagle dog assessed as liver blood flow at 1 mg/kg, po or 0.5 mg/kg, iv administered as single dose and measured for 24 hrs by LC-MS/MS analysis; assay type: ADME, organism-based, Canis lupus familiaris; conditions: in vivo
structure (smiles),measurement,setting,value
Cc1n[nH]c2ccc(-c3nnc(C)n3Cc3ccc(C(F)(F)F)cc3)cc12,inhibition,[1],Dose-Dependent Effect
same,LBF,[2],27%
same,Activity,[3],Active
same,Kd,[4],4200 nM
same,inhibition,[5],Dose-Dependent Effect
same,IC50,[6],> 30000 nM
same,Vd,[7],0.5 L/kg
same,IC50,[8],0.7 nM
same,Activity,[9],Active
same,inhibition in vivo at 1 mg/kg,[10],46.1%
same,Kd,[11],250 nM
same,bioavailability,[12],102%
same,EC50,[13],> 10000 nM
same,half-life,[14],3.8 h
same,LBF,[15],7.2%
